Reference: PubChem BioAssay AID1745844 (Carcinogenic Potency Database (CPDB), 2022)
The source made the active and inactive calls. How the calls were made is not given here.

Tested on: rodent lifetime carcinogenesis bioassay, tumor incidence TD50
Assay: carcinogenic potency in animals, long-term in vivo studies, CPDB compilation (AID 1745844)
Details: in feed

COc1nn(CSP(=S)(OC)OC)c(=O)s1
carcinogen call (mouse, strain Charles River CD1, females, site: liver, lesion: hepatocellular adenoma, dosed 100 weeks, study length 100 weeks): negative (inactive)
TD50 (mouse, strain Charles River CD1, females, site: liver, lesion: hepatocellular carcinoma, dosed 100 weeks, study length 100 weeks): 184 mg/kg/day (inactive)
TD50 (mouse, strain Charles River CD1, females, site: liver, lesion: several types, types named in the paper, dosed 100 weeks, study length 100 weeks): 16200 mg/kg/day (inactive)
TD50 (mouse, strain Charles River CD1, males, site: liver, lesion: hepatocellular adenoma, dosed 100 weeks, study length 100 weeks): 17.2 mg/kg/day
TD50 (mouse, strain Charles River CD1, males, site: liver, lesion: hepatocellular carcinoma, dosed 100 weeks, study length 100 weeks): 21.8 mg/kg/day
TD50 (mouse, strain Charles River CD1, males, site: liver, lesion: several types, types named in the paper, dosed 100 weeks, study length 100 weeks): 6.04 mg/kg/day

Cc1ncc([N+](=O)[O-])n1C
TD50 (rat, strain Sprague-Dawley, females, site: any site (literature study), lesion: several types, types named in the paper, dosed 46 weeks, study length 66 weeks): 17 mg/kg/day
TD50 (rat, strain Sprague-Dawley, females, site: mammary gland, lesion: fibroadenoma, dosed 46 weeks, study length 66 weeks): 17 mg/kg/day

COC(=O)C1=C(C)NC(C)=C(C(=O)OCCN2CCN(C(c3ccccc3)c3ccccc3)CC2)C1c1cccc([N+](=O)[O-])c1 (configuration not stated)
TD50 (mouse, strain ICR, females, site: liver, lesion: hepatocellular adenoma, dosed 78 weeks, study length 78 weeks): 545 mg/kg/day (inactive)
TD50 (mouse, strain ICR, females, site: lung, lesion: alveolar/bronchiolar adenoma, dosed 78 weeks, study length 78 weeks): 438 mg/kg/day (inactive)
carcinogen call (mouse, strain ICR, males, site: liver, lesion: hepatocellular adenoma, dosed 78 weeks, study length 78 weeks): negative (inactive)
carcinogen call (mouse, strain ICR, males, site: liver, lesion: hepatocellular carcinoma, dosed 78 weeks, study length 78 weeks): negative (inactive)
carcinogen call (mouse, strain ICR, males, site: lung, lesion: alveolar/bronchiolar adenoma, dosed 78 weeks, study length 78 weeks): negative (inactive)
TD50 (rat, strain Charles River CD (Sprague-Dawley), females, site: liver, lesion: hepatocellular adenoma, dosed 104 weeks, study length 104 weeks): 157 mg/kg/day (inactive)
carcinogen call (rat, strain Charles River CD (Sprague-Dawley), females, site: liver, lesion: hepatocellular carcinoma, dosed 104 weeks, study length 104 weeks): negative (inactive)
TD50 (rat, strain Charles River CD (Sprague-Dawley), males, site: liver, lesion: hepatocellular adenoma, dosed 104 weeks, study length 104 weeks): 8240 mg/kg/day (inactive)
TD50 (rat, strain Charles River CD (Sprague-Dawley), males, site: liver, lesion: hepatocellular carcinoma, dosed 104 weeks, study length 104 weeks): 405 mg/kg/day (inactive)

C[N+](C)(C)CCO
TD50 (mouse, strain C3H/HeN, males, site: liver, lesion: hepatocellular adenoma, dosed 52 weeks, study length 52 weeks): 5650 mg/kg/day
TD50 (mouse, strain C3H/HeN, males, site: liver, lesion: hepatocellular carcinoma, dosed 52 weeks, study length 52 weeks): 6060 mg/kg/day
TD50 (mouse, strain C3H/HeN, males, site: liver, lesion: several types, types named in the paper, dosed 52 weeks, study length 52 weeks): 2770 mg/kg/day
carcinogen call (rat, strain Fischer 344, males, site: liver, lesion: neoplastic nodule, dosed 72 weeks, study length 103 weeks): negative (inactive)

CCCCCCCCCCC(C)c1ccc(S(=O)(=O)O)cc1 (configuration not stated)
carcinogen call (rat, strain Slc-Wistar, females, site: preputial gland, lesion: several types, types named in the paper, dosed 142 weeks, study length 148 weeks): negative (inactive)
carcinogen call (rat, strain Slc-Wistar, males, site: preputial gland, lesion: several types, types named in the paper, dosed 127 weeks, study length 139 weeks): negative (inactive)

Cc1cc(N=Nc2c(O)ccc3ccccc23)c(S(=O)(=O)O)cc1Cl
TD50 (mouse, strain B6C3F1, females, site: any site (literature study), lesion: several types, types named in the paper, dosed 103 weeks, study length 105 weeks): 18200 mg/kg/day (inactive)
TD50 (mouse, strain B6C3F1, females, site: liver, lesion: hepatocellular adenoma + hepatocellular carcinoma + neoplastic nodule, dosed 103 weeks, study length 105 weeks): 9240 mg/kg/day
TD50 (mouse, strain B6C3F1, females, site: lung, lesion: alveolar/bronchiolar adenoma + alveolar/bronchiolar carcinoma, dosed 103 weeks, study length 105 weeks): 9200 mg/kg/day
TD50 (mouse, strain B6C3F1, males, site: any site (literature study), lesion: several types, types named in the paper, dosed 103 weeks, study length 104 weeks): 2120 mg/kg/day (inactive)
TD50 (mouse, strain B6C3F1, males, site: liver, lesion: hepatocellular adenoma + hepatocellular carcinoma + neoplastic nodule, dosed 103 weeks, study length 104 weeks): 781 mg/kg/day
TD50 (mouse, strain B6C3F1, males, site: lung, lesion: alveolar/bronchiolar adenoma + alveolar/bronchiolar carcinoma, dosed 103 weeks, study length 104 weeks): 5390 mg/kg/day
TD50 (rat, strain Fischer 344, females, site: liver, lesion: hepatocellular adenoma + hepatocellular carcinoma + neoplastic nodule, dosed 103 weeks, study length 104 weeks): 1140 mg/kg/day
TD50 (rat, strain Fischer 344, females, site: liver, lesion: neoplastic nodule, dosed 103 weeks, study length 104 weeks): 1140 mg/kg/day
TD50 (rat, strain Fischer 344, males, site: any site (literature study), lesion: several types, types named in the paper, dosed 103 weeks, study length 104 weeks): 331 mg/kg/day
TD50 (rat, strain Fischer 344, males, site: liver + spleen, lesion: hepatocellular carcinoma + neoplastic nodule + fibrosarcoma + leiomyosarcoma + osteosarcoma + sarcoma, NOS, dosed 103 weeks, study length 104 weeks): 104 mg/kg/day
TD50 (rat, strain Fischer 344, males, site: liver, lesion: hepatocellular adenoma + hepatocellular carcinoma + neoplastic nodule, dosed 103 weeks, study length 104 weeks): 357 mg/kg/day
TD50 (rat, strain Fischer 344, males, site: liver, lesion: hepatocellular carcinoma + neoplastic nodule, dosed 103 weeks, study length 104 weeks): 357 mg/kg/day
TD50 (rat, strain Fischer 344, males, site: liver, lesion: neoplastic nodule, dosed 103 weeks, study length 104 weeks): 265 mg/kg/day
TD50 (rat, strain Fischer 344, males, site: spleen, lesion: fibrosarcoma + leiomyosarcoma + osteosarcoma + sarcoma, NOS, dosed 103 weeks, study length 104 weeks): 146 mg/kg/day
TD50 (rat, strain Fischer 344, males, site: spleen, lesion: fibrosarcoma, dosed 103 weeks, study length 104 weeks): 211 mg/kg/day
TD50 (rat, strain Fischer 344, males, site: spleen, lesion: osteosarcoma, dosed 103 weeks, study length 104 weeks): 728 mg/kg/day
carcinogen call (rat, strain Osborne-Mendel, females, site: pituitary gland, lesion: adenoma, dosed 108 weeks, study length 108 weeks): negative (inactive)
carcinogen call (rat, strain Osborne-Mendel, males, site: all sites, lesion: fibrosarcoma, dosed 108 weeks, study length 108 weeks): negative (inactive)
TD50 (rat, strain Osborne-Mendel, males, site: testis, lesion: interstitial-cell adenoma, dosed 108 weeks, study length 108 weeks): 28600 mg/kg/day (inactive)
